Results on 32 molecules are retold here after patent US11186577B2, “Vasopressin receptor antagonists and products and methods related thereto” (BlackThorn Therapeutics, Inc., priority 2017, dated 2021).

Test [1] concerns the target human Oxytocin Receptor (hOTR) (Homo sapiens (Human), UniProt P30559). Nature of the test: Oxytocin receptor antagonist assay (oxytocin-evoked calcium, FLIPR, CHEM-1-hOTR cells). Type of test: cell-based. The following applies: read-out: OT IC50. A digest of the protocol: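 Antagonist mode in CHEM-1-hOTR cells loaded with Calcium-6 dye; compounds (10-point, 1:3 series) preincubated 15 min at 37 °C, then oxytocin added at daily-determined EC80 in HBSS/20 mM HEPES with 0.1% BSA. Fluorescence (ex 470-495, em 515-575 nm) followed 3 min on FLIPR^TETRA; concentration-dependent reduction of oxytocin response measured.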

In test [2] the target is human Arginine Vasopressin Receptor 1a (AVPR1a) (Homo sapiens (Human), UniProt P37288). In words: Vasopressin V1A receptor antagonist assay (AVP-evoked calcium, FLIPR, CHO-AVPR1a cells). The conditions noted are these: read-out: V1a IC50. The test is classed as cell-based. A digest of the protocol: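 CHO cells expressing human AVPR1a, Calcium-6 dye loaded 60-90 min, preincubated with compound 15 min at 37° C., then challenged with AVP at its daily-determined EC80. FLIPR fluorescence; 10-point 1:3 series from 3 μM, duplicates.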
Chain of human Arginine Vasopressin Receptor 1a (AVPR1a) (P37288 whole entry): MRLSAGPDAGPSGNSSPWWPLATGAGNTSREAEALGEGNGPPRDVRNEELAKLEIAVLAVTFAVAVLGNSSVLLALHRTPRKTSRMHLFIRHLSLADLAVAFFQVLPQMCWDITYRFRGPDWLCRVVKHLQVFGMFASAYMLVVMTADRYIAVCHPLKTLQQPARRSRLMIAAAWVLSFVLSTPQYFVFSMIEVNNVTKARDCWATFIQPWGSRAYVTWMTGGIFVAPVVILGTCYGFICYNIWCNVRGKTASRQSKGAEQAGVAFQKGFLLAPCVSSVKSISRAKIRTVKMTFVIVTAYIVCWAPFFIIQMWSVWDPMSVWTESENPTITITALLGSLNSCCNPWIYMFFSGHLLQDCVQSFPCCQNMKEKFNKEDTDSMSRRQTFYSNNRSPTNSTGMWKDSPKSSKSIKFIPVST

Chain of human Oxytocin Receptor (hOTR) (P30559 whole entry): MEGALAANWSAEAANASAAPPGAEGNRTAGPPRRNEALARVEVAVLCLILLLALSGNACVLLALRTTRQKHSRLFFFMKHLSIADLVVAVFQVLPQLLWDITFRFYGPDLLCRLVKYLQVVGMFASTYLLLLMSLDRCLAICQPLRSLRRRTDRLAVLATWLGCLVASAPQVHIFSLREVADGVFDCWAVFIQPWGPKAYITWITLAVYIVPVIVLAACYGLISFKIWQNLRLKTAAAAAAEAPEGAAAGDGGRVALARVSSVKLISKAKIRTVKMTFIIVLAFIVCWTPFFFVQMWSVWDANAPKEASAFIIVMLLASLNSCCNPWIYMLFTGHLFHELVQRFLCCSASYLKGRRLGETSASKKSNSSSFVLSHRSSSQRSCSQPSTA

As usually defined, the IC50 is the concentration that gives 50% inhibition. As to `CC(=O)N1Cc2cc(Cl)ccc2-n2c(nnc2C2CC3(C2)CN(c2ccc(F)cn2)C3)C1` [compound 64], the IC50 in test [1] was over 1000 nM; in test [2], under 100 nM.

Regarding `CCC(=O)N1Cc2cc(Cl)ccc2-n2c(nnc2C2CC3(C2)CN(c2ccccn2)C3)C1` [compound 67], the IC50 in test [1] is over 1000 nM; in test [2] it was under 100 nM.

Consider `CCOC(=O)N1Cc2cc(Cl)ccc2-n2c(nnc2C2CC3(C2)CN(c2ccc(F)cn2)C3)C1` [compound 69], for which the half-maximal inhibitory concentration (IC50) in test [1] was 100 to 500 nM; in test [2], under 100 nM.

On to `COC(=O)N1Cc2cc(Cl)ccc2-n2c(nnc2C2CC3(C2)CN(c2ccccn2)C3)C1` [compound 70], for which the IC50 in test [1] was 500 to 1000 nM; in test [2] it was under 100 nM.

As for `CC(C)C(=O)N1Cc2cc(Cl)ccc2-n2c(nnc2C2CC3(C2)CN(c2ccccn2)C3)C1` [compound 71], the IC50 in test [1] was over 1000 nM; in test [2] it was under 100 nM.

On to `CCC(=O)N1Cc2cc(Cl)ccc2-n2c(nnc2C2CC3(C2)CN(c2ccc(F)cn2)C3)C1` [compound 72], for which the half-maximal inhibitory concentration (IC50) in test [1] is over 1000 nM; in test [2], under 100 nM.

On to `CC(CF)OC(=O)N1Cc2cc(Cl)ccc2-n2c(nnc2C2CC3(C2)CN(c2ccc(F)cn2)C3)C1` (stereo not shown) [compound 78], for which the half-inhibitory concentration (IC50) in test [1] was 100 to 500 nM; in test [2], under 100 nM.

`O=C(OC(CF)CF)N1Cc2cc(Cl)ccc2-n2c(nnc2C2CC3(C2)CN(c2ccc(F)cn2)C3)C1` [compound 79]: the results for the IC50 in test [1] and in test [2] were 100 to 500 nM and under 100 nM, respectively.

On to `O=C(N1Cc2cc(Cl)ccc2-n2c(nnc2C2CC3(C2)CN(c2cnccn2)C3)C1)C1(F)CC1` [compound 81], for which the IC50 was over 1000 nM in test [1] and under 100 nM in test [2].

In the case of `O=C(OC1CC1)N1Cc2cc(Cl)ccc2-n2c(nnc2C2CC3(C2)CN(c2ccc(F)cn2)C3)C1` [compound 90], the values for the IC50 in test [1] and in test [2] were 100 to 500 nM and under 100 nM, respectively.

`O=C(N1Cc2cc(Cl)ccc2-c2c(C3CC4(C3)CN(c3cccnn3)C4)noc2C1)C(F)(F)F` [compound 105]: the IC50 is 100 to 500 nM in test [1] and under 100 nM in test [2].

For `O=C(C(F)F)N1Cc2cc(Cl)ccc2-n2c(nnc2C2CC3(C2)CN(c2ccccn2)C3)C1` [compound 122], the half-inhibitory concentration (IC50) in test [1] was over 1000 nM; in test [2], under 100 nM.

Take `O=C(C(F)F)N1Cc2cc(Cl)ccc2-n2c(nnc2C2CC3(C2)CN(C(=O)C2(F)CC2)C3)C1` [compound 134]: the IC50 in test [1] is over 1000 nM; in test [2], under 100 nM.

As to `O=C(C1CC1)N1CC2(CC(c3nnc4n3-c3ccc(Cl)cc3CN(C(=O)C3(F)CC3)C4)C2)C1` [compound 136], the concentration for half-maximal inhibition (IC50) is over 1000 nM in test [1] and under 100 nM in test [2].

Consider `COC(=O)N1Cc2cc(Cl)ccc2-n2c(C3CC4(C3)CN(c3ccc(F)cn3)C4)nnc2C1C` (stereo not shown) [compound 142, methyl 8-chloro-1-(2-(5-fluoropyridin-2-yl)-2-azaspiro[3.3]heptan-6-yl)-4-methyl-4H-benzo[f][1,2,4]triazolo[4,3-a][1,4]diazepine-5(6H)-carboxylate], for which the IC50 in test [1] was 500 to 1000 nM; in test [2], under 100 nM.

As for `CC(C)OC(=O)N1Cc2cc(Cl)ccc2-n2c(nnc2C2CC3(C2)CN(C(=O)C2CC2)C3)C1` [compound 153], the values for the IC50 in test [1] and in test [2] were over 1000 nM and under 100 nM, respectively.

`CC(C)OC(=O)N1Cc2cc(Cl)ccc2-n2c(C3CC4(C3)CN(c3cnccn3)C4)nnc2C1C` (stereo not shown) [compound 164]: the results for the half-maximal inhibitory concentration (IC50) in test [1] and in test [2] were 100 to 500 nM and under 100 nM, respectively.

For `COC(=O)N1Cc2cc(Cl)ccc2-n2c(C3CC4(C3)CN(c3cnccn3)C4)nnc2C1C` (stereo not shown) [compound 165], the 50% inhibitory concentration (IC50) in test [1] was 500 to 1000 nM; in test [2] it was under 100 nM.

`COC(=O)N1Cc2cc(Cl)ccc2-n2c(C3CC4(C3)CN(c3ncccn3)C4)nnc2C1C` (stereo not shown) [compound 166]: the IC50 in test [1] was over 1000 nM; in test [2] it was under 100 nM.

For `CC(C)OC(=O)N1Cc2cc(Cl)ccc2-n2c(C3CC4(C3)CN(c3ncccn3)C4)nnc2C1C` (stereo not shown) [compound 167], the values for the half-inhibitory concentration (IC50) in test [1] and in test [2] were over 1000 nM and under 100 nM, respectively.

As to `CCOC(=O)N1Cc2cc(Cl)ccc2-n2c(C3CC4(C3)CN(c3ncccn3)C4)nnc2C1C` (stereo not shown) [compound 168], the half-maximal inhibitory concentration (IC50) in test [1] was over 1000 nM; in test [2], under 100 nM.

Take `CCOC(=O)N1Cc2cc(Cl)ccc2-n2c(C3CC4(C3)CN(c3ccc(F)cn3)C4)nnc2C1C` (stereo not shown) [compound 169]: the results for the IC50 in test [1] and in test [2] were 100 to 500 nM and under 100 nM, respectively.

In the case of `COC(=O)N1Cc2cc(Cl)ccc2-n2c(C3CC4(C3)CN(c3ncc(F)cn3)C4)nnc2C1C` (stereo not shown) [compound 170], the IC50 in test [1] is over 1000 nM; in test [2] it was under 100 nM.

For the molecule `CC1c2nnc(C3CC4(C3)CN(c3ncccn3)C4)n2-c2ccc(Cl)cc2CN1C(=O)OC1CC1` (stereo not shown) [compound 171], the values for the IC50 in test [1] and in test [2] were over 1000 nM and under 100 nM, respectively.

With `CCOC(=O)N1Cc2cc(Cl)ccc2-n2c(C3CC4(C3)CN(c3ncc(F)cn3)C4)nnc2C1C` (stereo not shown) [compound 172], the IC50 in test [1] is over 1000 nM; in test [2], under 100 nM.

Take `CC1c2nnc(C3CC4(C3)CN(c3ncc(F)cn3)C4)n2-c2ccc(Cl)cc2CN1C(=O)OC1(C)CC1` (stereo not shown) [compound 173]: the figures for the IC50 in test [1] and in test [2] were 100 to 500 nM and under 100 nM, respectively.

Turning to `CC1c2nnc(C3CC4(C3)CN(c3ccc(F)cn3)C4)n2-c2ccc(Cl)cc2CN1C(=O)C1(F)CC1` (stereo not shown) [compound 174], the values for the IC50 in test [1] and in test [2] were 500 to 1000 nM and under 100 nM, respectively.

For the molecule `CC1c2nnc(C3CC4(C3)CN(c3ncccn3)C4)n2-c2ccc(Cl)cc2CN1C(=O)C1(F)CC1` (stereo not shown) [compound 175], the IC50 in test [1] was over 1000 nM; in test [2], under 100 nM.

For `CC1c2nnc(C3CC4(C3)CN(c3cnccn3)C4)n2-c2ccc(Cl)cc2CN1C(=O)C1(F)CC1` (stereo not shown) [compound 177], the results for the IC50 in test [1] and in test [2] were over 1000 nM and under 100 nM, respectively.

On to `COC(=O)N1Cc2cc(Cl)ccc2-n2c(C3CC4(C3)CN(c3cccc(C)n3)C4)nnc2C1C` (stereo not shown) [compound 180], for which the IC50 in test [1] is 100 to 500 nM; in test [2], under 100 nM.

Regarding `COC(=O)N1Cc2cc(Cl)ccc2-n2c(C3CC4(C3)CN(c3ncccc3F)C4)nnc2C1C` (stereo not shown) [compound 182], the half-inhibitory concentration (IC50) in test [1] was 500 to 1000 nM; in test [2] it was under 100 nM.

Take `CC1c2nnc(C3CC4(C3)CN(c3ncc(F)cn3)C4)n2-c2ccc(Cl)cc2CN1C(=O)OC(CF)CF` (stereo not shown) [compound 194]: the IC50 in test [1] is over 1000 nM; in test [2], under 100 nM.
